Results taken from patent US11470844B2, “Vespidae wasp repellent” (KINP CO., LTD, priority 2015, dated 2022).

Tests used:
Type in all cases: in vivo
Vespa analis = test: Grape juice attraction trap set outside
Method: (§1) The inventors conducted the experiment at four places in Kagawa Prefecture Kinbuchi Forest Park. The experiment was conducted totally 4 times from Oct. 11 to Nov. 4, 2013, from Nov. 4 to Dec. 7, 2013, from Oct. 1 to Oct. 31, 2014, and from Oct. 31 to Dec. 9, 2014.
(§2) First, four 2 cm square holes were opened on the side of a 2 L capacity PET bottle, and 500 mL of grape juice was added thereto to prepare a control attraction trap to kill a Vespidae worker. As Test liquid example, 25 mL, 5 mL or 1 mL of 2-phenylethanol was added to the grape juice of the traps. […] Since all of the test sites were low mountainous and sloping areas and had many trees, each trap had to be suspended from the branch of live trees. As a result, the horizontal distances between a pair of control example trap and test liquid example trap could not be adjusted to the same, and the distance was from 1 m to 8.5 m. There were not only Vespidae worker but also male Vespidae among the killed Vespidae wasps in the attraction traps; however, the results of the control example and test liquid example were compared on the basis of the number of the killed Vespidae worker, since a Vespidae worker causes a stabbing accident and plays an important role in building a nest. In Table 8, “*” indicates the case where there is a significant difference at p<0.01 in the χ^2 test to which the correction of Yates is applied, and “**” indicates the case where there is a significant difference at p<0.001 in the same test. The result of the first experiment in 2013 is shown in Table 9, the result of the second experiment in 2013 is shown in Table 10, the result of the first experiment using 1% 2-phenylethanol in 2014 is shown in Table 11, the result of the second experiment in 2014 is shown in Table 12, the result of the first experiment using 0.1% 2-phenylethanol in 2014 is shown in Table 13, and the result of the second experiment in 2014 is shown in Table 14. In Tables 9 to 14, “*” indicates the case where there is a significant difference at p<0.05 in the t-test, “**” indicates the case where there is a significant difference at p<0.01 in the same test, and “***” indicates the case where there is a significant difference at p<0.001 in the same test.
(§3) In the first experiment and second experiment, the trap prepared by adding 25 mL of 2-phenylethanol to 500 mL of grape juice was used as the test liquid example of 5% 2-phenylethanol.
(§4) In the first experiment and second experiment, 10 traps prepared by adding 5 mL of 2-phenylethanol to 500 mL of grape juice and 10 traps prepared by adding 0.5 mL of 2-phenylethanol to 500 mL of grape juice were used respectively as the 2 kinds of test liquid examples of 1% 2-phenylethanol and 0.1% 2-phenylethanol to conduct the experiment.

[1] = system: Vespa crabro flavofasciata; test: Grape juice attraction trap set outside
Method: as §1, §2, §3, §4

Vespa mandarinia = test: Grape juice attraction trap set outside
Method: as §1, §2, §3, §4

[2] = system: Vespa simillima xanthoptera; test: Grape juice attraction trap set outside
Method: as §1, §2, §3, §4

[3] = system: Vespa analis insularis (Fabricius) worker; test: Black ball nest disturbance, Experiment 1
Method: The experiment was conducted with utilizing a nest of Vespa analis insularis (Fabricius) built under an awning of a private house in Iida-cho Takamatsu City on Sep. 9, 2015.
A black ball was hung on the tip of a fishing rod having a length of 11 m, and distilled water was sprayed on the entire surface of the black ball. While the surface of the nest was tapped with the tip of the fishing rod once every about 10 seconds, the worker's action against the black ball was taken and recorded with a video camera for 5 minutes. When the nest was hit, the black ball was in close proximity to the nest as the black ball was about to touch the nest, and when the nest was not hit, the black ball was kept still in the air about 50 cm away from the nest surface. The thus recorded video footage was replayed, and the number of worker which flew to and alighted on the hemisphere surface of the black ball for attack was counted. Similar experiments were conducted with respect to the black ball prepared by spraying benzyl alcohol on the entire surface of a new black ball as “Test liquid example 1” and the black ball prepared by spraying benzyl alcohol on the entire surface of the control example black ball on which alarm pheromone was adsorbed by the worker's attack as “Test liquid example 2”. In addition, a picture of the video footage 234 seconds after the start of the nest disturbance is shown as FIG. 3. FIG. 3A is an image of the control example that distilled water was used, FIG. 3B is an image of the Test liquid example 1, and FIG. 3C is an image of the Test liquid example 2.

[4] = 0.1% 2-phenylethanol trap, first experiment 2014, 10 traps
[5] = 0.1% 2-phenylethanol trap, second experiment 2014, 10 traps
[6] = 1% 2-phenylethanol trap, first experiment 2014, 10 traps
[7] = 1% 2-phenylethanol trap, second experiment 2014, 10 traps
[8] = 5% 2-phenylethanol trap, first experiment 2013, 18 traps
[9] = 5% 2-phenylethanol trap, second experiment 2013, 18 traps

Compound: OCCc1ccccc1 [2-Phenylethanol, 2-phenylethanol]
- Total number of killed worker (Average ± SD), Vespa analis (Vespa analis; [4]): (0.60 ± 0.70)
- Total number of killed worker, Vespa analis (Vespa analis; [4]): 6
- Total number of killed worker (Average ± SD), Vespa analis (Vespa analis; [5]): (0.00 ± 0.00)
- Total number of killed worker, Vespa analis (Vespa analis; [5]): 0
- Total number of killed worker (Average ± SD), Vespa analis (Vespa analis; [6]): (0.00 ± 0.00)
- Total number of killed worker, Vespa analis (Vespa analis; [6]): 0
- Total number of killed worker (Average ± SD), Vespa analis (Vespa analis; [7]): (0.00 ± 0.00)
- Total number of killed worker, Vespa analis (Vespa analis; [7]): 0
- Total number of killed worker (Average ± SD), Vespa analis (Vespa analis; [8]): (0.00 ± 0.00)
- Total number of killed worker, Vespa analis (Vespa analis; [8]): 0
- Total number of killed worker (Average ± SD), Vespa analis (Vespa analis; [9]): (0.00 ± 0.00)
- Total number of killed worker, Vespa analis (Vespa analis; [9]): 0
- Total number of killed worker (Average ± SD), Vespa crabro flavofasciata [1, 4]: (1.50 ± 1.27)
- Total number of killed worker, Vespa crabro flavofasciata [1, 4]: 15
- Total number of killed worker (Average ± SD), Vespa crabro flavofasciata [1, 5]: (0.00 ± 0.00)
- Total number of killed worker, Vespa crabro flavofasciata [1, 5]: 0
- Total number of killed worker (Average ± SD), Vespa crabro flavofasciata [1, 6]: (0.00 ± 0.00)
- Total number of killed worker, Vespa crabro flavofasciata [1, 6]: 0
- Total number of killed worker (Average ± SD), Vespa crabro flavofasciata [1, 7]: (0.00 ± 0.00)
- Total number of killed worker, Vespa crabro flavofasciata [1, 7]: 0
- Total number of killed worker (Average ± SD), Vespa crabro flavofasciata [1, 8]: (0.00 ± 0.00)
- Total number of killed worker, Vespa crabro flavofasciata [1, 8]: 0
- Total number of killed worker (Average ± SD), Vespa crabro flavofasciata [1, 9]: (0.00 ± 0.00)
- Total number of killed worker, Vespa crabro flavofasciata [1, 9]: 0
- Total number of killed worker (Average ± SD), Vespa mandarinia (Vespa mandarinia; [4]): (3.60 ± 5.58)
- Total number of killed worker, Vespa mandarinia (Vespa mandarinia; [4]): 36
- Total number of killed worker (Average ± SD), Vespa mandarinia (Vespa mandarinia; [5]): (0.30 ± 0.95)
- Total number of killed worker, Vespa mandarinia (Vespa mandarinia; [5]): 3
- Total number of killed worker (Average ± SD), Vespa mandarinia (Vespa mandarinia; [6]): (0.00 ± 0.00)
- Total number of killed worker, Vespa mandarinia (Vespa mandarinia; [6]): 0
- Total number of killed worker (Average ± SD), Vespa mandarinia (Vespa mandarinia; [7]): (0.00 ± 0.00)
- Total number of killed worker, Vespa mandarinia (Vespa mandarinia; [7]): 0
- Total number of killed worker (Average ± SD), Vespa mandarinia (Vespa mandarinia; [8]): (0.00 ± 0.00)
- Total number of killed worker, Vespa mandarinia (Vespa mandarinia; [8]): 0
- Total number of killed worker (Average ± SD), Vespa mandarinia (Vespa mandarinia; [9]): (0.00 ± 0.00)
- Total number of killed worker, Vespa mandarinia (Vespa mandarinia; [9]): 0
- Total number of killed worker (Average ± SD), Vespa simillima xanthoptera [2, 4]: (0.10 ± 0.32)
- Total number of killed worker, Vespa simillima xanthoptera [2, 4]: 1
- Total number of killed worker (Average ± SD), Vespa simillima xanthoptera [2, 5]: (0.00 ± 0.00)
- Total number of killed worker, Vespa simillima xanthoptera [2, 5]: 0
- Total number of killed worker (Average ± SD), Vespa simillima xanthoptera [2, 6]: (0.00 ± 0.00)
- Total number of killed worker, Vespa simillima xanthoptera [2, 6]: 0
- Total number of killed worker (Average ± SD), Vespa simillima xanthoptera [2, 7]: (0.00 ± 0.00)
- Total number of killed worker, Vespa simillima xanthoptera [2, 7]: 0
- Total number of killed worker (Average ± SD), Vespa simillima xanthoptera [2, 8]: (0.00 ± 0.00)
- Total number of killed worker, Vespa simillima xanthoptera [2, 8]: 0
- Total number of killed worker (Average ± SD), Vespa simillima xanthoptera [2, 9]: (0.00 ± 0.00)
- Total number of killed worker, Vespa simillima xanthoptera [2, 9]: 0

Compound: OCc1ccccc1 [Benzyl alcohol, benzyl alcohol]
- number of worker alighted on hemisphere surface of black ball for attack ([3]; 30 s, benzyl alcohol on ball with adsorbed alarm pheromone): 0
- number of worker alighted on hemisphere surface of black ball for attack ([3]; 30 s, benzyl alcohol on new black ball): 0
- number of worker alighted on hemisphere surface of black ball for attack ([3]; 60 s, benzyl alcohol on ball with adsorbed alarm pheromone): 1
- number of worker alighted on hemisphere surface of black ball for attack ([3]; 60 s, benzyl alcohol on new black ball): 0
- number of worker alighted on hemisphere surface of black ball for attack ([3]; 90 s, benzyl alcohol on ball with adsorbed alarm pheromone): 0
- number of worker alighted on hemisphere surface of black ball for attack ([3]; 90 s, benzyl alcohol on new black ball): 2
- number of worker alighted on hemisphere surface of black ball for attack ([3]; 120 s, benzyl alcohol on ball with adsorbed alarm pheromone): 0
- number of worker alighted on hemisphere surface of black ball for attack ([3]; 120 s, benzyl alcohol on new black ball): 1
- number of worker alighted on hemisphere surface of black ball for attack ([3]; 150 s, benzyl alcohol on ball with adsorbed alarm pheromone): 0
- number of worker alighted on hemisphere surface of black ball for attack ([3]; 150 s, benzyl alcohol on new black ball): 0
- number of worker alighted on hemisphere surface of black ball for attack ([3]; 180 s, benzyl alcohol on ball with adsorbed alarm pheromone): 0
- number of worker alighted on hemisphere surface of black ball for attack ([3]; 180 s, benzyl alcohol on new black ball): 0
- number of worker alighted on hemisphere surface of black ball for attack ([3]; 210 s, benzyl alcohol on ball with adsorbed alarm pheromone): 0
- number of worker alighted on hemisphere surface of black ball for attack ([3]; 210 s, benzyl alcohol on new black ball): 0
- number of worker alighted on hemisphere surface of black ball for attack ([3]; 240 s, benzyl alcohol on ball with adsorbed alarm pheromone): 0
- number of worker alighted on hemisphere surface of black ball for attack ([3]; 240 s, benzyl alcohol on new black ball): 0
- number of worker alighted on hemisphere surface of black ball for attack ([3]; 270 s, benzyl alcohol on ball with adsorbed alarm pheromone): 0
- number of worker alighted on hemisphere surface of black ball for attack ([3]; 270 s, benzyl alcohol on new black ball): 0
- number of worker alighted on hemisphere surface of black ball for attack ([3]; 300 s, benzyl alcohol on ball with adsorbed alarm pheromone): 0
- number of worker alighted on hemisphere surface of black ball for attack ([3]; 300 s, benzyl alcohol on new black ball): 0
- repellent effect ([3]; in vivo): strong repellent effect
